In US4357344A, “Polybutylbenzylphenols and benzyl-3,4-methylenedioxybenzenes in insect population control” (The United States of America as represented by the …, priority 1979, dated 1982):

Columns and labels:
flies (family Muscidae) [1] = experiment: Anti-procreant comparison tests (sexual sterility or oviposition inhibition); assay type: in vivo; details: for inducing sexual sterility or inhibiting oviposition: comparison tests, Examples 6-9; for activity in the method of the invention (ineffective compounds): general statement of the description
Protocol: (§1) The compound to be tested was administered in a standard fly food containing 6 parts of sugar, 6 parts of powdered non-fat dry milk, and 1 part of powdered egg yolk. Treated food was prepared by mixing an appropriate amount of a solution or suspension of CBCP in acetone with a batch of the food. The acetone was evaporated (4-6 hours) and the dry material was repulverized.
Oviposition inhibition tests: Samples of treated food with a container of water were placed in cages containing 100 newly-emerged adult flies (family Muscidae). After the flies had been exposed to the treated diet for 6-7 days, 1/2 inch of moist standard fly larva-rearing medium (CSMA) in souffle cups was placed in the cages for oviposition. After 4-6 hours, the cup was removed and examined for eggs. If no eggs were laid, the medium was offered again at intervals of 1 or 2 days until it had been offered three times or the flies had oviposited.
(§2) Chemosterilancy tests: If eggs were laid in the above tests, the cups were filled with water and stirred to break up the egg masses. A random sample of 100 eggs from each cup was collected and placed on a small piece of black cloth which was then laid on top of moist larva-rearing medium in a rearing container. Observations were made to determine percentage of egg hatch and pupal development.
These flies were maintained on untreated fly food. After 5 days, cups containing the larval-rearing medium was provided as previously described and a 100-egg sample was collected and place on moist larve-rearing medium. About a week after oviposition, examination was made to determine the percentage of hatched eggs and of pupae developed.
For purpose of comparison the above-described tests were applied to 2-benzyl-4-t-butylphenol and 2-(α-methylbenzyl)-4-t-butylphenol.
For purposes of comparison the above-described tests were applied to 2,6-di-t-butyl-4-(4-methoxybenzyl) phenol and 2,6-di-t-butyl-4-(α-methyl-4-methoxybenzyl)phenol, both compounds being ineffective in inducing sexual sterility or in inhibiting oviposition.
For purposes of comparison the following compounds were tested and found to be ineffective in inducing sexual sterility or in inhibiting oviposition: 2-(4-methoxybenzyl)-3,4-methylenedioxyphenol, (α-methylbenzyl)-3,4-methylenedioxy-6-methoxybenzene, (α,α-dimethylbenzyl)-3,4-methylenedioxy-6-methoxybenzene, (α,α-dimethylbenzyl)-3,4-methylenedioxy-6-ethoxybenzene, (α,α-dimethylbenzyl)-3,4-methylenedioxy-6-n-propoxybenzene, (α,α-dimethylbenzyl)-3,4-methylenedioxy-6-n-butoxybenzene, (α,α-dimethylbenzyl)-3,4-methylenedioxy-6-n-pentoxybenzene, (α-vinylbenzyl)-3,4-methylenedioxy-6-methoxybenzene, (α-vinylbenzyl)-3,4-methylenedioxy-6-ethoxybenzene, (α-vinylbenzyl)-3,4-methylenedioxy-6-n-propoxybenzene.

[2] = tested on: early fourth-stage larvae of the common malaria mosquito (Anopheles quadrimaculatus); experiment: Growth-inhibition tests on mosquito larvae; assay type: in vivo; details: in water; corrected by Abbott's formula
Protocol: The compound to be tested was added to one liter of water until the final concentration thereof was a growth-inhibiting amount. Fifty early fourth-stage larvae of the common malaria mosquito (Anopheles quadrimaculatus) were placed on this water. Larval food was administered daily. Dead larvae and pupae were removed, counted, and discarded daily. Live pupae were removed, rinsed, and transferred to a cup of distilled water. The cup was placed in an emergence cage, and the emerging adults, if any, were maintained on a sugar-water diet.
The effectiveness of the compound in inhibiting growth was determined by adding the number of dead larvae and pupae and the number of adults that were dead, unable to complete eclosion, and malformed. This sum was corrected by Abbott's formula (to adjust for the number of larvae or pupae which would die naturally) and designated as the GI (growth inhibition). The results are expressed as GI-90, i.e., the concentration of growth inhibitor in ppm that would prevent and/or retard growth in 90% of the treated larvae.

flies (family Muscidae) [3] = experiment: Chemosterilancy tests (egg hatch and pupal development; Examples 6-9); assay type: in vivo
Protocol: as §1, §2
The procedure outlined in Example 6 was followed using a Group II compound.
The procedure outlined in Example 6 was followed using Group III compounds. The results are summarized below:
The procedure outlined in Example 6 was followed substituting a Group IV compound for those of Group I. The table below provides a summary of results.

flies (family Muscidae) [4] = experiment: Oviposition inhibition tests (treated fly food; Examples 6-9); assay type: in vivo
Protocol: The compound to be tested was administered in a standard fly food containing 6 parts of sugar, 6 parts of powdered non-fat dry milk, and 1 part of powdered egg yolk. Treated food was prepared by mixing an appropriate amount of a solution or suspension of CBCP in acetone with a batch of the food. The acetone was evaporated (4-6 hours) and the dry material was repulverized. Oviposition inhibition tests: Samples of treated food with a container of water were placed in cages containing 100 newly-emerged adult flies (family Muscidae). After the flies had been exposed to the treated diet for 6-7 days, 1/2 inch of moist standard fly larva-rearing medium (CSMA) in souffle cups was placed in the cages for oviposition. After 4-6 hours, the cup was removed and examined for eggs. […] The procedure outlined in Example 6 was followed using a Group II compound. The procedure outlined in Example 6 was followed using Group III compounds. The results are summarized below: The procedure outlined in Example 6 was followed substituting a Group IV compound for those of Group I. The table below provides a summary of results.

[5] = tested on: Salmonella tester strains TA-100, TA-98, TA-1537; experiment: Ames' Salmonella/microsome mutagenicity procedure; details: TA-100, TA-98, TA-1537; without or with metabolic activation
Protocol: The mutagenic activity of D, A, B, M, N, and CC were tested by the standard Ames' Salmonella/microsome procedure, which is reported to show better than 90% correlation with development of mammalian cancers (Ames et al., Mutation Research, Vol. 31, p. 347, 1975; McCann et al., Proc. Nat. Acad. Sci., Vol. 72, p. 5135, 1975). Tester strains TA-100, TA-98, TA-1537 and the plate test method were used, employing concentrations of 10, 100, 1000, and 10,000 […]. The metabolic activation mixture (S-9 mix) used the 9000 times g supernatant of Arochlor-1254-induced rat liver homogenate at a level of 100 μl per ml of S-9 mix.

Compound | inducing sexual sterility or inhibiting oviposition (flies (family Muscidae) [1]) | activity in the method of the invention (ineffective compounds) (flies (family Muscidae) [1]) | GI-90 (concentration of growth inhibitor that would prevent and/or retard growth in 90% of the treated larvae) [2] [ppm] | Egg hatch (flies (family Muscidae) [3]; 0.1% in food) [%] | Pupal development (flies (family Muscidae) [3]; 0.1% in food) [%] | Mortality, parent generation (flies (family Muscidae) [4]; 0.1% in food) [%] | Mortality, parent generation (flies (family Muscidae) [4]; 0.25% in food) [%] | further results
CCCCOc1cc2c(cc1C(C)(C)c1ccccc1)OCO2 [AA, (α, 60 -Dimethylbenzyl)-3,4-methylenedioxy-6-n-butoxybenzene] | ineffective | – | – | – | – | – | – | –
COc1ccc(C(C)c2cc(C(C)(C)C)c(O)c(C(C)(C)C)c2)cc1 (stereo not drawn) [Compound G, 2,6-Di-t-butyl-4-(α-methyl-4-methoxybenzyl)phenol] | ineffective | ineffective | – | – | – | – | – | –
CC(C)(C)c1ccc(O)c(Cc2ccccc2)c1 [2-benzyl-4-t-butylphenol, reference compound] | ineffective | ineffective | – | – | – | – | – | –
2-(4-methoxybenzyl)-3,4-methylenedioxyphenol [reference compound] | ineffective | – | – | – | – | – | – | –
COc1ccc(Cc2cc3c(cc2O)OCO3)cc1 [6-(4-methoxybenzyl)-3,4-methylenedioxyphenol, reference compound] | – | ineffective | – | – | – | – | – | –
(α-Vinylbenzyl)-3,4-methylenedioxy-6-n-propoxybenzene [GG] | ineffective | – | – | – | – | – | – | –
(α,α-Dimethylbenzyl)-3,4-methylenedioxy-6-methoxybenzene | ineffective | – | – | – | – | – | – | –
COc1ccc(Cc2cc(C(C)(C)C)c(O)c(C(C)(C)C)c2)cc1 [F, 2,6-Di-t-butyl-4-(4-methoxybenzyl)phenol] | ineffective | ineffective | 0.042 | – | – | – | – | –
CC(c1ccccc1)c1cc(C(C)(C)C)ccc1O (stereo not drawn) [2-(α-methylbenzyl)-4-t-butylphenol, reference compound] | ineffective | ineffective | – | – | – | – | – | –
COc1ccc(Cc2cc3c(cc2OCCC(C)C)OCO3)cc1 [S, (4-Methoxybenzyl)-3,4-methylenedioxy-6-iso-pentoxybenzene] | – | – | 0.036 | 6 | 6 | 0 | 0 | Egg hatch (flies (family Muscidae) [3]; 0.05% in food): 55%; Pupal development (flies (family Muscidae) [3]; 0.05% in food): 55%; Egg hatch (flies (family Muscidae) [3]; 0.25% in food): 0%; Pupal development (flies (family Muscidae) [3]; 0.25% in food): 0%; Egg hatch (flies (family Muscidae) [3]; 0.5% in food): 0%; Pupal development (flies (family Muscidae) [3]; 0.5% in food): 0%; Mortality, parent generation (flies (family Muscidae) [4]; 0.05% in food): 0%; Mortality, parent generation (flies (family Muscidae) [4]; 0.5% in food): 0%
COc1ccc(Cc2cc3c(cc2OCC(C)C)OCO3)cc1 [Q, (4-Methoxybenzyl)-3,4-methylenedioxy-6-iso-butoxybenzene] | – | – | 0.082 | 0 | 0 | 0 | 0 | Egg hatch (flies (family Muscidae) [3]; 0.05% in food): 28%; Pupal development (flies (family Muscidae) [3]; 0.05% in food): 28%; Egg hatch (flies (family Muscidae) [3]; 0.25% in food): 0%; Pupal development (flies (family Muscidae) [3]; 0.25% in food): 0%; Mortality, parent generation (flies (family Muscidae) [4]; 0.05% in food): 0%; Mortality, parent generation (flies (family Muscidae) [4]; 0.5% in food): 90%
CCCCOc1cc2c(cc1Cc1ccc(OC)cc1)OCO2 [P, (4-Methoxybenzyl)-3,4-methylenedioxy-6-n-butoxybenzene] | – | – | 0.047 | 10 | 10 | 0 | 0 | Egg hatch (flies (family Muscidae) [3]; 0.05% in food): 36%; Pupal development (flies (family Muscidae) [3]; 0.05% in food): 36%; Egg hatch (flies (family Muscidae) [3]; 0.25% in food): 0%; Pupal development (flies (family Muscidae) [3]; 0.25% in food): 0%; Egg hatch (flies (family Muscidae) [3]; 0.5% in food): 0%; Pupal development (flies (family Muscidae) [3]; 0.5% in food): 0%; Mortality, parent generation (flies (family Muscidae) [4]; 0.05% in food): 0%; Mortality, parent generation (flies (family Muscidae) [4]; 0.5% in food): 0%
CC(C)(C)c1cc(C(C)(C)c2ccccc2)cc(C(C)(C)C)c1O [4-(α,α-dimethylbenzyl)-2,6-di-t-butylphenol, reference compound] | – | ineffective | – | – | – | – | – | –
CCCOc1cc2c(cc1Cc1ccc(OC)cc1)OCO2 [N, (4-Methoxybenzyl)-3,4-methylenedioxy-6n-propoxybenzene] | – | – | – | 0 | 0 | 0 | 75 | Egg hatch (flies (family Muscidae) [3]; 0.05% in food): 33%; Pupal development (flies (family Muscidae) [3]; 0.05% in food): 33%; Mortality, parent generation (flies (family Muscidae) [4]; 0.05% in food): 0%; mutagenic activity [5]: non-mutagenic
CCCCCOc1cc2c(cc1C(C)c1ccc(OC)cc1)OCO2 (stereo not drawn) [K, (α-methyl-4-methoxybenzyl)-3,4-methylenedioxy-6-n-pentoxybenzene] | – | – | 0.060 | 70 | 70 | 0 | 0 | Egg hatch (flies (family Muscidae) [3]; 0.25% in food): 0%; Pupal development (flies (family Muscidae) [3]; 0.25% in food): 0%; Egg hatch (flies (family Muscidae) [3]; 0.5% in food): 0%; Pupal development (flies (family Muscidae) [3]; 0.5% in food): 0%; Egg hatch (flies (family Muscidae) [3]; 1.0% in food): 0%; Pupal development (flies (family Muscidae) [3]; 1.0% in food): 0%; Mortality, parent generation (flies (family Muscidae) [4]; 0.5% in food): 0%; Mortality, parent generation (flies (family Muscidae) [4]; 1.0% in food): 0%
